Data: patent US12552783B2, “Modulators of proteolysis and associated methods of use” (Arvinas Operations, Inc., priority 2018, dated 2026)

Experiments:
[1] = molecular target: T1, KRas (Homo sapiens, UniProt P01116, G12C); assay: KRas degradation in NCI-H2030 cells by Western blot, normalized to GAPDH (data of Table 14); type: cell-based; parameters: host or cells: NCI-H2030; conditions: H2030 cells; for Dmax: NCI-H2030
In short: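 Cells plated overnight, switched to FBS-free medium for 24 h, then treated (0.3, 1, 3 μM final; 0.1% DMSO) for 24 h if VHL-based, otherwise 72 h. RIPA lysates (10 μg protein) blotted for KRas, signal normalized to GAPDH and compared with DMSO.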

[2] = molecular target: T1, KRas; assay: KRas degradation in SW1573 cells by Western blot, normalized to GAPDH (data of Table 14); type: cell-based; conditions: SW1573 cells
In short: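 SW1573 cells, homozygous for the KRas G12C mutation and maintained in DMEM with 10% FBS and 1% penicillin-streptomycin, were seeded in 12-well plates, allowed to attach overnight at 37° C. under 5% CO2, then serum-starved for 24 hours before compound exposure. KRas levels were measured by Western blot, normalized to GAPDH, and compared with DMSO controls to give percent degradation, DC50 and Dmax.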

| Structure (SMILES) | Percent Degradation at Indicated Concentration (μM) ([1]; 0.3 μM) | Percent Degradation at Indicated Concentration (μM) ([1]; 1 μM) | Percent Degradation at Indicated Concentration (μM) ([1]; 3 μM) | Dmax [1] [%] | DC50 [2] [nM] | Dmax [2] [%] | Percent Degradation at Indicated Concentration (μM) ([2]; 0.01 μM) | Percent Degradation at Indicated Concentration (μM) ([2]; 0.03 μM) | Percent Degradation at Indicated Concentration (μM) ([2]; 0.1 μM) | Percent Degradation at Indicated Concentration (μM) ([2]; 0.3 μM) | Percent Degradation at Indicated Concentration (μM) ([2]; 1 μM) | Percent Degradation at Indicated Concentration (μM) ([2]; 3 μM) |
| --- | --- | --- | --- | --- | --- | --- | --- | --- | --- | --- | --- | --- |
| C=CC(=O)N1CCN(c2nc(O[C@H](C)CN3CCC(OCCOCCOCCOCCOCCOCC(=O)N[C@H](C(=O)N4C[C@H](O)C[C@H]4C(=O)N[C@@H](C)c4ccc(-c5scnc5C)cc4)C(C)(C)C)CC3)nc3c(F)c(-c4cc(O)cc5ccccc45)c(Cl)cc23)CC1 [compound 402, (2S,4R)-1-((2S)-20-((1-((2R)-2-((4-(4-acryloylpiperazin-1-yl)-6-chloro-8-fluoro-7-(3-hydroxynaphthalen-1-yl)quinazolin-2-yl)oxy)propyl)piperidin-4-yl)oxy)-2-(tert-butyl)-4-oxo-6,9,12,15,18-pentaoxa-3-azaicosanoyl)-4-hydroxy-N-((S)-1-(4-(4-methylthiazol-5-yl)phenyl)ethyl)pyrrolidine-2-carboxamide] | C (Percent Degradation: C ≤ 35) | C (Percent Degradation: C ≤ 35) | C (Percent Degradation: C ≤ 35) | ≤ 35 | ≥ 1000 | ≤ 35 | C (Percent Degradation: C ≤ 35) | C (Percent Degradation: C ≤ 35) | C (Percent Degradation: C ≤ 35) | C (Percent Degradation: C ≤ 35) | C (Percent Degradation: C ≤ 35) | – |
| C=CC(=O)N1CCN(c2nc(O[C@H](C)CN3CCC(OCCOCCOCCOCC(=O)N[C@H](C(=O)N4C[C@H](O)C[C@H]4C(=O)N[C@@H](C)c4ccc(-c5scnc5C)cc4)C(C)(C)C)CC3)nc3c(F)c(-c4cc(O)cc5ccccc45)c(Cl)cc23)CC1 [compound 400, (2S ,4R)-1-((2S)-14-((1-((2R)-2-((4-(4-acryloylpiperazin-1-yl)-6-chloro-8-fluoro-7-(3-hydroxynaphthalen-1-yl)quinazolin-2-yl)oxy)propyl)piperidin-4-yl)oxy)-2-(tert-butyl)-4-oxo-6,9,12-trioxa-3-azatetradecanoyl)-4-hydroxy-N-((S)-1-(4-(4-methylthiazo1-5-yl)phenyl)ethyl)pyrrolidine-2-carboxamide] | C (Percent Degradation: C ≤ 35) | C (Percent Degradation: C ≤ 35) | C (Percent Degradation: C ≤ 35) | ≤ 35 | ≥ 1000 | ≤ 35 | C (Percent Degradation: C ≤ 35) | C (Percent Degradation: C ≤ 35) | C (Percent Degradation: C ≤ 35) | C (Percent Degradation: C ≤ 35) | C (Percent Degradation: C ≤ 35) | – |
| C=CC(=O)N1CCN(c2nc(O[C@H](C)CN3CCC(CN4CCN(c5ccc6c(c5)C(=O)N(C5CCC(=O)NC5=O)C6=O)CC4)CC3)nc3c(F)c(-c4cc(O)cc5ccccc45)c(Cl)cc23)CC1 (stereo partly drawn) [compound 431, 5-(4-((1-((2R)-2-((4-(4-acryloylpiperazin-1-yl)-6-chloro-8-fluoro-7-(3-hydroxynaphthalen-1-yl)quinazolin-2-yl)oxy)propyl)piperidin-4-yl)methyl)piperazin-1-yl)-2-(2,6-dioxopiperidin-3-yl)isoindoline-1,3-dione] | – | – | – | – | – | – | – | – | C (Percent Degradation: C ≤ 35) | C (Percent Degradation: C ≤ 35) | C (Percent Degradation: C ≤ 35) | – |
| C=CC(=O)N1CCN(c2nc(O[C@H](C)CN(C)CCOCCOCCOCCOCC(=O)N[C@H](C(=O)N3C[C@H](O)C[C@H]3C(=O)N[C@@H](C)c3ccc(-c4scnc4C)cc3)C(C)(C)C)nc3c(F)c(-c4cc(O)cc5ccccc45)c(Cl)cc23)CC1 [compound 397, (2S,4R)-1-((2S,20R)-20-((4-(4-acryloylpiperazin-1-yl)-6-chloro-8-fluoro-7-(3-hydroxynaphthalen-1-yl)quinazolin-2-yl)oxy)-2-(tert-butyl)-18-methyl-4-oxo-6,9,12,15-tetraoxa-3,18-diazahenicosanoyl)-4-hydroxy-N-((S)-1-(4-(4-methylthiazol-5-yl)phenyl)ethyl)pyrrolidine-2-carboxamide] | – | – | – | – | 100 to 1000 | ≤ 35 | C (Percent Degradation: C ≤ 35) | C (Percent Degradation: C ≤ 35) | C (Percent Degradation: C ≤ 35) | C (Percent Degradation: C ≤ 35) | C (Percent Degradation: C ≤ 35) | – |
| Cc1ncsc1-c1ccc([C@H](C)NC(=O)[C@@H]2C[C@@H](O)CN2C(=O)[C@@H](NC(=O)COCCOCCOC2CCN(C[C@@H](C)Oc3nc(N4CCN(C(=O)C(O)O)CC4)c4cc(Cl)c(-c5cc(O)cc6ccccc56)c(F)c4n3)CC2)C(C)(C)C)cc1 [compound 245, (2S,4R)-1-((2S)-2-(2-(2-(2-((1-((2R)-2-((6-chloro-4-(4-(2,2-dihydroxyacetyl)piperazin-1-yl)-8-fluoro-7-(3-hydroxynaphthalen-1-yl)quinazolin-2-yl)oxy)propyl)piperidin-4-yl)oxy)ethoxy)ethoxy)acetamido)-3,3-dimethylbutanoyl)-4-hydroxy-N-((S)-1-(4-(4-methylthiazol-5-yl)phenyl)ethyl)pyrrolidine-2-carboxamide] | – | – | – | – | – | – | – | – | C (Percent Degradation: C ≤ 35) | C (Percent Degradation: C ≤ 35) | C (Percent Degradation: C ≤ 35) | – |
| C[C@H](CN1CCC(OCCOCCOCCOCCOCCOc2ccc3c(c2)C(=O)N(C2CCC(=O)NC2=O)C3=O)CC1)Oc1nc(N2CCN(C(=O)C(O)O)CC2)c2cc(Cl)c(-c3cc(O)cc4ccccc34)c(F)c2n1 (stereo partly drawn) [compound 515, 5-((14-((1-((2R)-2-((6-chloro-4-(4-(2,2-dihydroxyacetyl)piperazin-1-yl)-8-fluoro-7-(3-hydroxynaphthalen-1-yl)quinazolin-2-yl)oxy)propyl)piperidin-4-yl)oxy)-3,6,9,12-tetraoxatetradecyl)oxy)-2-(2,6-dioxopiperidin-3-yl)isoindoline-1,3-dione] | – | – | – | – | – | – | – | – | – | C (Percent Degradation: C ≤ 35) | C (Percent Degradation: C ≤ 35) | C (Percent Degradation: C ≤ 35) |
| C=CC(=O)N1CCN(c2nc(O[C@H](C)CN3CCC(OCCOCCOCCOc4cc([C@@H](C(=O)N5C[C@H](O)C[C@H]5C(=O)N[C@@H](C)c5ccc(-c6scnc6C)cc5)C(C)C)on4)CC3)nc3c(F)c(-c4cc(O)cc5ccccc45)c(Cl)cc23)CC1 [compound 528, (2S,4R)-1-((2S)-2-(3-(2-(2-(2-((1-((2R)-2-((4-(4-acryloylpiperazin-1-yl)-6-chloro-8-fluoro-7-(3-hydroxynaphthalen-1-yl)quinazolin-2-yl)oxy)propyl)piperidin-4-yl)oxy)ethoxy)ethoxy)ethoxy)isoxazol-5-yl)-3-methylbutanoyl)-4-hydroxy-N-((S)-1-(4-(4-methylthiazol-5-yl)phenyl)ethyl)pyrrolidine-2-carboxamide] | – | – | – | – | – | – | – | C (Percent Degradation: C ≤ 35) | C (Percent Degradation: C ≤ 35) | C (Percent Degradation: C ≤ 35) | – | – |
